Assay results published in patent US20120201749A1, “NP-1 Antagonists and Their Therapeutic Use” (priority 2009, published 2012).

Target: NP-1 (Homo sapiens, UniProt O14786)
Assay: Biotinylated-VEGF-A165 (bt-VEGF-A165) binding to NP-1
Settings: for inhibition at 3 µM: read-out: Screen (% inhibition at 3 μM); for inhibition at 30 µM: read-out: Screen (% inhibition at 30 μM)
Description: Human prostate carcinoma DU145 cells were cultured in growth medium (RPMI 1640 containing 10% FBS and L-glutamine). DU145 cells were seeded at the density of 2×10^4 cells per well (96-well plates) in 0.1 ml growth medium and transfected with adenovirus vectors containing the full-length open-reading frame of human NP-1. The Ad.NP-1-transfected cells grew for 2 days prior to a binding assay.
Confluent Ad.NP-1-transfected cells in 96-well plates were washed twice with phosphate-buffered saline (PBS). The various concentrations of compounds diluted in binding medium (Dulbecco's modified Eagle's medium, 25 mM HEPES pH 7.3 containing 0.1% BSA) were added, followed by addition of 2 nM of bt-VEGF-A165. After 2 h of incubation at room temperature, the medium was aspirated and washed three times with PBS. The bound bt-VEGF-A165 to NP-1 was detected by streptavidin-horseradish peroxidase conjugates and the enzyme substrate, and measured using a Tecan Genios plate reader at A450 nm with a reference wavelength at A595 nm. Non-specific binding was determined in the presence of 100-fold excess unlabelled VEGF-A165.
The 96-well plates were pre-coated with NP1 protein at 3 μg/ml overnight at 4° C. On the following day, the plates were treated with blocking buffer (PBS containing 1% BSA) and washed three times with wash buffer (PBS containing 0.1% Tween-20). The various concentrations of compounds diluted in PBS containing 1% DMSO were added, followed by addition of 0.25 nM of bt-VEGF-A165. After 2 h of incubation at room temperature, the plates were washed three times with wash buffer. The bound bt-VEGF-A165 to NP-1 was detected by streptavidin-horseradish peroxidase conjugates and the enzyme substrate, and measured using a Tecan Genios plate reader at A450 nm with a reference wavelength at A595 nm. Nonspecific binding was determined in the absence of NP-1 coated wells of the plates.

NP-1, sequence (O14786 22-923): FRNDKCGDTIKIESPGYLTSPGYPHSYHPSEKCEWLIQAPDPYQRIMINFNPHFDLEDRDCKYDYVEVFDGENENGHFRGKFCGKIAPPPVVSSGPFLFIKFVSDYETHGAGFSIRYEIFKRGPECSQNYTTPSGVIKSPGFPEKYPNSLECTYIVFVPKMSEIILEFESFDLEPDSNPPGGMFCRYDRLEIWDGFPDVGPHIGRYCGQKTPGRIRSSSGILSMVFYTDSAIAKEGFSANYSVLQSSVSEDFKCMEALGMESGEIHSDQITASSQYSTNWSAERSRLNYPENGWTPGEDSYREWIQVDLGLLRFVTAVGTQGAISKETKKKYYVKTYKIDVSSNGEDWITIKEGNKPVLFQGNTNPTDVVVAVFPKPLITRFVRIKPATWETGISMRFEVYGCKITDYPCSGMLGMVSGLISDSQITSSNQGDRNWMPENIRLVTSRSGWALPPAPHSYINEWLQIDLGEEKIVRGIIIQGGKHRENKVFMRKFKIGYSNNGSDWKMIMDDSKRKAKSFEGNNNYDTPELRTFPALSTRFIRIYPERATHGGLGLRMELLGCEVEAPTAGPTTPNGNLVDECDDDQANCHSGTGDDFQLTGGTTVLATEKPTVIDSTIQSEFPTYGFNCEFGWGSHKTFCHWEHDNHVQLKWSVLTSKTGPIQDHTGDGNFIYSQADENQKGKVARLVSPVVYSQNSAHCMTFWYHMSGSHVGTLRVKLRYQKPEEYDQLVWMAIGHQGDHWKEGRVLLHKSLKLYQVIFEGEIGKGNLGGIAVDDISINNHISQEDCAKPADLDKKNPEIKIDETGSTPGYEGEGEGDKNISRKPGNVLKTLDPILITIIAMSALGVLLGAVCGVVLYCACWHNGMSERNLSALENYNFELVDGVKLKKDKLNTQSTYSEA

IC50 [nM]	inhibition at 3 µM (3 μM compound) [%]	inhibition at 30 µM (30 μM compound) [%]	Screen (% inhibition at 3 μM) (3 μM compound, 3 µM) [%]	Screen (% inhibition at 30 μM) (30 μM compound, 30 µM) [%]	SMILES
320	84	98	–	–	Cn1cncc1CNCc1cccc(-c2cc3c(c(S(=O)(=O)Nc4ccsc4C(=O)N[C@@H](CCCNC(=N)N)C(=O)O)c2)OCC3)c1 [Compound 36, (S)-5-Guranidino-2-({3-[5-(3-{[(3-methyl-3H-imidazol-4-ylmethyl)-amino]-methyl}-phenyl)-2,3-dihydro-benzofuran-7-sulfonylamino]-thiophene-2-carbonyl}-amino)-pentanoic acid]
–	72	92	–	–	N=C(N)NCCC[C@H](NC(=O)c1sccc1NS(=O)(=O)c1cccc(NCc2csc(N3CCC(N)CC3)n2)c1)C(=O)O [Compound 64, (S)-5-guanidino-2-{[3-(3-{[2-(4-amino-piperidin-1-yl)-thiazol-4-ylmethyl]-amino}-benzenesulfonylamino)-thiophene-2-carbonyl]-amino}-pentanoic acid]
14	92	100	–	–	COC(=O)C1CCN(Cc2ccccc2-c2cc3c(c(S(=O)(=O)Nc4ccsc4C(=O)N[C@@H](CCCNC(=N)N)C(=O)O)c2)OCC3)CC1 [Compound 5, 1-(2-{7-[2-((S)-1-Carboxy-4-guanidino-butylcarbamoyl)-thiophen-3-ylsulfamoyl]-2,3-dihydro-benzofuran-5-yl}-benzyl)-piperidine-4-carboxylic acid methyl ester]
3700	47	–	–	–	N=C(N)NCCC[C@H](NC(=O)c1sccc1NS(=O)(=O)c1cccc(NCc2csc(N3CCN(CCO)CC3)n2)c1)C(=O)O [Compound 77, (S)-5-Guanidino-2-({3-[3-({2-[4-(2-hydroxy-ethyl)-piperazin-1-yl]-thiazol-4-ylmethyl}-amino)-benzenesulfonylamino]-thiophene-2-carbonyl}-amino)-pentanoic acid]
–	71	96	–	–	N=C(N)NCCC[C@H](NC(=O)c1sccc1NS(=O)(=O)c1cc(-c2cccc(CNCCO)c2)cc2c1OCC2)C(=O)O [Compound 35, (S)-5-Guanidino-2-{[3-(5-{3-[(2-hydroxy-ethylamino)-methyl]-phenyl}-2,3-dihydro-benzofuran-7-sulfonylamino)-thiophene-2-carbonyl]-amino}-pentanoic acid]
–	62	97	–	–	N=C(N)NCCC[C@H](NC(=O)c1sccc1NS(=O)(=O)c1cc(-c2ccccc2CN2CCN(c3ccncc3)CC2)cc2c1OCC2)C(=O)O [Compound 15, (S)-5-Guanidino-2-[(3-{5-[2-(4-pyridin-4-yl-piperazin-1-ylmethyl)-phenyl]-2,3-dihydro-benzofuran-7-sulfonylamino}-thiophene-2-carbonyl)-amino]-pentanoic acid]
295	–	–	68	93	N=C(N)NCCC[C@H](NC(=O)c1sccc1NS(=O)(=O)c1cc(-c2cccc(CN3CCC(N4CCOCC4)CC3)c2)cc2c1OCC2)C(=O)O [Compound 38, (S)-5-Guanidino-2-[(3-{5-[3-(4-morpholin-4-yl-piperidin-1-ylmethyl)-phenyl]-2,3-dihydro-benzofuran-7-sulfonylamino}-thiophene-2-carbonyl)-amino]-pentanoic acid]
691	80	100	–	–	N=C(N)NCCC[C@H](NC(=O)c1sccc1NS(=O)(=O)c1cc(-c2cccc(CN3CCN(Cc4ccncc4)CC3)c2)cc2c1OCC2)C(=O)O [Compound 30, (S)-5-Guanidino-2-[(3-{5-[3-(4-pyridin-4-ylmethyl-piperazin-1-ylmethyl)-phenyl]-2,3-dihydro-benzofuran-7-sulfonylamino}-thiophene-2-carbonyl)-amino]-pentanoic acid]
40	98	99	–	–	N=C(N)NCCC[C@H](NC(=O)c1sccc1NS(=O)(=O)c1cccc(NCc2csc(N3CCN(c4ccncc4)CC3)n2)c1)C(=O)O [Compound 57, (S)-5-guanidino-2-{[3-(3-{[2-(4-pyridin-4-yl-piperazin-1-yl)-thiazol-4-ylmethyl]-amino}-benzenesulfonylamino)-thiophene-2-carbonyl]-amino}-pentanoic acid]
–	68	95	–	–	N=C(N)NCCC[C@H](NC(=O)c1sccc1NS(=O)(=O)c1cccc(NCc2csc(N3CCN(c4cccnc4)CC3)n2)c1)C(=O)O [Compound 62, (S)-5-guanidino-2-{[3-(3-{[2-(4-pyridin-3-yl-piperazin-1-yl)-thiazol-4-ylmethyl]-amino}-benzenesulfonylamino)-thiophene-2-carbonyl]-amino}-pentanoic acid]
2000	–	97	–	–	N=C(N)NCCC[C@H](NC(=O)c1sccc1NS(=O)(=O)c1cc(-c2ccccc2CN2CCN(c3cccnc3)CC2)cc2c1OCC2)C(=O)O [Compound 10, (S)-5-Guanidino-2-[(3-{5-[2-(4-pyridin-3-yl-piperazin-1-ylmethyl)-phenyl]-2,3-dihydro-benzofuran-7-sulfonylamino}-thiophene-2-carbonyl)-amino]-pentanoic acid]
525	71	–	–	–	N=C(N)NCCC[C@H](NC(=O)c1sccc1NS(=O)(=O)c1cc(-c2cccc(CN3CCN(CCO)CC3)c2)cc2c1OCC2)C(=O)O [Compound 55, (S)-5-Guanidino-2-{[3-(5-{3-[4-(2-hydroxy-ethyl)-piperazin-1-ylmethyl]-phenyl}-2,3-dihydro-benzofuran-7-sulfonylamino)-thiophene-2-carbonyl]-amino}-pentanoic acid]
–	73	–	–	–	N=C(N)NCCC[C@H](NC(=O)c1sccc1NS(=O)(=O)c1cc(-c2ccccc2CN2CCC(N)CC2)cc2c1OCC2)C(=O)O [Compound 21, (S)-2-[(3-{5-[2-(4-Amino-piperidin-1-ylmethyl)-phenyl]-2,3-dihydro-benzofuran-7-sulfonylamino}-thiophene-2-carbonyl)-amino]-5-guanidino-pentanoic acid]
–	64	95	–	–	N=C(N)NCCC[C@H](NC(=O)c1sccc1NS(=O)(=O)c1cc(-c2ccccc2CN2CCN(Cc3ccccn3)CC2)cc2c1OCC2)C(=O)O [Compound 16, (S)-5-Guanidino-2-[(3-{5-[2-(4-pyridin-2-ylmethyl-piperazin-1-ylmethyl)-phenyl]-2,3-dihydro-benzofuran-7-sulfonylamino}-thiophene-2-carbonyl)-amino]-pentanoic acid]
105	86	99	–	–	N=C(N)NCCC[C@H](NC(=O)c1sccc1NS(=O)(=O)c1cc(-c2cccc(CNCc3ccccn3)c2)cc2c1OCC2)C(=O)O [Compound 31, (S)-5-Guanidino-2-({3-[5-(3-{[(pyridin-2-ylmethyl)-amino]-methyl}-phenyl)-2,3-dihydro-benzofuran-7-sulfonylamino]-thiophene-2-carbonyl}-amino)-pentanoic acid]
–	44	90	–	–	Cc1cc(CNc2nc(CNc3cccc(S(=O)(=O)Nc4ccsc4C(=O)N[C@@H](CCCNC(=N)N)C(=O)O)c3)cs2)no1 [Compound 67]
216	96	100	–	–	N=C(N)NCCC[C@H](NC(=O)c1sccc1NS(=O)(=O)c1cc(-c2cccc(CN3CCN(c4ccncc4)CC3)c2)cc2c1OCC2)C(=O)O [Compound 28, (S)-5-Guanidino-2-[(3-{5-[3-(4-pyridin-4-yl-piperazin-1-ylmethyl)-phenyl]-2,3-dihydro-benzofuran-7-sulfonylamino}-thiophene-2-carbonyl)-amino]-pentanoic acid]
625	88	97	–	–	N=C(N)NCCC[C@H](NC(=O)c1sccc1NS(=O)(=O)c1cc(-c2cccc(CN3CCN(c4ccccn4)CC3)c2)cc2c1OCC2)C(=O)O [Compound 27, (S)-5-Guanidino-2-[(3-{5-[3-(4-pyridin-2-yl-piperazin-1-ylmethyl)-phenyl]-2,3-dihydro-benzofuran-7-sulfonylamino}-thiophene-2-carbonyl)-amino]-pentanoic acid]
–	52	–	–	–	N=C(N)NCCC[C@H](NC(=O)c1sccc1NS(=O)(=O)c1cc(-c2ccccc2CNCc2ccc(O)nc2)cc2c1OCC2)C(=O)O [Compound 49, (S)-5-Guanidino-2-({3-[5-(2-{[(6-hydroxy-pyridin-3-ylmethyl)-amino]-methyl}-phenyl)-2,3-dihydro-benzofuran-7-sulfonylamino]-thiophene-2-carbonyl}-amino)-pentanoic acid]
–	68	–	–	–	N=C(N)NCCC[C@H](NC(=O)c1sccc1NS(=O)(=O)c1cccc(NCc2csc(N3CCN(c4nccs4)CC3)n2)c1)C(=O)O [Compound 76, (S)-5-guanidino-2-{[3-(3-{[2-(4-thiazol-2-yl-piperazin-1-yl)-thiazol-4-ylmethyl]-amino}-benzenesulfonylamino)-thiophene-2-carbonyl]-amino}-pentanoic acid]
